Laboratory results: patent US20030087263A1, “Method of screening remedy for cancer with the use of interaction domain of p53 and mortalin” (priority 1999, published 2003)
Where no end group is shown, it is not given here.

Tests used:
[1] = target: T1, full-length mouse wild-type p53 (Mus musculus, UniProt P02340); assay: in vitro binding assay of mortalin protein and p53 protein (co-immunoprecipitation); conditions: His-tagged recombinant mortalin, in vitro translated 35S-labeled p53, co-precipitation
T1 construct: mRNA encoding full-length mouse wild-type p53; made in house; host or cells: in vitro translation in rabbit reticulocyte lysate (Stratagene)
Protocol: After preparing mRNA encoding full-length mouse wild-type p53 with a template of pSP65/p53 plasmid (Braithwaite, A. W. and Jenkins, J. R. (1989) J. Virol. 63, 1792-1799) using Transprobe T Kit (Pharmacia), [^35S]-labeled p53 protein was obtained by subjecting to in vitro translation reaction using rabbit reticulocyte lysate (Stratagene) for 1 hour in the presence of L-[^35S]methionine. After separating the translation products by SDS-PAGE, the translation reaction products were confirmed by autoradiography. The in vitro translated p53 protein was purified by immunoprecipitation with anti-p53 antibodies (PAb 421, PAb 1620 (Calbiochem), and PAb 122 (Boehringer-Mannheim)), and was used in the subsequent in vitro binding assays described below.
After preparing cDNAs encoding the recombinant mortalin protein (full-length) and various deletion mutants (described later) by PCR and converting them to a form to encode a His-tagged protein by inserting the cDNAs into pQE30 vector (Qiagen) the cDNAs were introduced into E. coli for expression. The resulting bacterial extracts were purified with Ni-NTA agarose (Qiagen). […] Then, p53 protein was detected by autoradiography; mortalin and deletion mutants thereof were detected by Western blotting with anti-His antibody and ECL-chemiluminescence (Amersham).

[2] = test system: p53-dependent transcriptional activation; assay: p53 responsive β-gal reporter assay by microinjection into Saos2 cells; assay type: cell-based, human; conditions: for β-Gal Staining: Percent of Blue cells / β-Gal Staining: Blue cells: Saos2, microinjected with pMSV p53 and p53 β-gal rep.
Description: (C) The p53 activity detected for the p53 responsive β-galactosidase reporter construct was inhibited when a plasmid encoding mot-2 (b and i) , mut-11 (d and K), or mutant V16M (f and m) was simultaneously microinjected with the p53 expression plasmid. […] Microinjected cells were visualized by staining with FITC-labeled anti-rabbit IgG (a-g).
Similar results were obtained according to an experiment wherein the above mutant mortalin proteins, temperature-sensitive mutant p53 protein, and p53 responsive β-gal reporter gene pRGCΔfos-lacZ were introduced into a human osteosarcoma cell line Saos2 by microinjection.

[3] = test system: p53-dependent transcriptional activation; assay: p53-dependent luciferase reporter analysis in p53-/- mouse embryonic fibroblasts; assay type: cell-based; conditions: p53-/- MEF, PG13-luc type reporter, temperature-sensitive p53 at 32.5° C.
Description: After preparing cDNAs that encode mutant mortalin proteins missing each of the functions shown in FIG. 3A and mortalin proteins point mutated at two different amino acid residues between mot-1 and mot-2 according to the method described in Example 1, the cDNAs were used for p53-dependent reporter analysis. Specifically, cells obtained by stable transfection of plasmid […], wherein the firefly luciferase gene has been linked to p53 responsive promoter (having the promoter sequence “[…]” and expresses the gene downstream of that sequence as a result of binding with p53 protein), and temperature-sensitive mutant p53 protein expression vector pMSVp53Val135 into mouse embryonic fibroblasts deficient in functional p53 gene (P53−/−MEF) (see, Wadhwa, R. et al. (1998) J. Biol. Chem. 273, 29586-29591) were transfected with various mortalin mutant protein expression vectors and pRL-CMV, serving as an internal control for standardizing transcription efficiency. After incubation at 32.5° C., which is an allowable temperature for the mutant p53 protein, the luciferase activity was measured.

[4] = test system: binding between p53 and mortalin (amino acid residues 1-435 or 105-435); assay: competitive inhibition assay of p53-mortalin binding; conditions: increasing amounts of competitor peptide
Description: (C) The increase of the amounts of the peptide (comp. pep) corresponding to the mortalin amino acid residues 253-282 to be added reduced the […] the mortalin amino acid residues 1-435 (mot 1-435) and the peptide corresponding to mortalin amino acid residues 105-435 (mot 105-435). p53 was immunoprecipitated with the polyclonal anti-p53 antibody (CM-1) and detected by Western blotting with a monoclonal anti-p53 antibody (PAb 421)) (bands represented with an arrowhead). Co-immunoprecipitated mortalin was detected by Western blotting with anti-His tag antibody (indicated by arrows).
Next, a competitive inhibition assay was performed to confirm the involvement of this peptide of amino acid residues 253-282 in the binding to p53.

mortalin = assay: immunoprecipitation of GFP-p53 fragments using anti-mortalin antibody; assay type: binding; conditions: transfected cells, probed with anti-GFP antibody
Description: (C) Mortalin was immunoprecipitated from cells transfected with GFP-tagged p53 fragments with polyclonal anti-mortalin antibodies, and was visualized with monoclonal antibodies. Immunocomplexes (Mot-IC) were also probed with monoclonal anti-GFP antibody to determine whether the p53 fusion proteins co-precipitate with mortalin (left panel). […] Bands corresponding to the IgG heavy and light chains are also detected on Mot-IC gel.

COS7 cells = assay: localization of GFP-fused p53 fragments expressed in COS7 cells; assay type: cell-based; conditions: COS7 cells transfected with GFP-fused protein
Description: (B) A photograph showing the green fluorescence of GFP in COS7 cells transfected with (a) GFP alone, (b) GFP-p53 (amino acid residues 312-352), and (c) GFP-p53 (amino acid residues 312-319).
Since the in vitro translated product of a 43 kDa truncated p53, lacking the C terminus, lacks the ability to bind to mortalin protein as described in Example 1, it was presumed that this deleted region contains the region that is related to the binding to mortalin.

T1 sequence (P02340 whole entry): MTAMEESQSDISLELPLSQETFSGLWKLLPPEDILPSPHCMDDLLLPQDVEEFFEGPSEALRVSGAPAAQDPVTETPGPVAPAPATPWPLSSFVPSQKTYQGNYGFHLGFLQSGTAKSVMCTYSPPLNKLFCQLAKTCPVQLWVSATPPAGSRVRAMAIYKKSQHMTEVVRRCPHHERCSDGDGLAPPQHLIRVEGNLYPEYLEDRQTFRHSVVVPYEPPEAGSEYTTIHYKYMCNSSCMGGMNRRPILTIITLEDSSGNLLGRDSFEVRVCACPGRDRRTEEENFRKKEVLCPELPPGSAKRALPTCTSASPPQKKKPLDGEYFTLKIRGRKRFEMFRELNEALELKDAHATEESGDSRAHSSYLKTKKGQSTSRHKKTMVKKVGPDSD

## mot-1: mortalin protein cloned from normal mouse cells; differs from mot-2 by two amino acids (residues 618 and 624)
[1]
  binding with full-length p53 protein: specifically bound
[2]
  β-Gal Staining: Percent of Blue cells: 88%
[2]; with Anti-mot IgG
  β-Gal Staining: Blue cells: 83
  β-Gal Staining: Percent of Blue cells: 90%
[2]; number of blue cells among transfected cells
  β-Gal Staining: Blue cells: 52
[2]; Saos2, microinjection
  effect on p53-dependent transcriptional activation (β-gal reporter): did not have a significant effect
[3]
  inhibition of p53-dependent transcriptional activation (luciferase activity): did not have any effect

## 253-282: peptide corresponding to the mortalin amino acid residues 253-282
[4]
  inhibition of binding between p53 and mortalin: inhibited binding between p53 and mortalin

## GFP-p53 (amino acid residues 372-390): green fluorescent protein fused with p53 amino acid residues 372-390 ({GFP}-KKGQSTSRHKKLMFKTEGP; UniProt P04637 372-390, looked up, fragment)
mortalin
  binding to mortalin (co-precipitation): no precipitation

## GFP-p53 (amino acid residues 312-352): green fluorescent protein fused with p53 amino acid residues 312-352 ({GFP}-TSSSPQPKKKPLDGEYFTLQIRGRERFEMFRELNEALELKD; UniProt P04637 312-352, looked up, fragment)
mortalin
  binding to mortalin (co-precipitation): confirmed to bind to mortalin
COS7 cells
  expressed proteins localized to the vicinity of the nucleus: about 90%
